Patent US10696693B2, “Fused imidazole derivatives as TGF-beta inhibitors” (Rigel Pharmaceuticals, Inc., priority 2014, dated 2020)
Where two headings read alike, the source gives them in different places.

How the values were obtained:
[1] = system: TGF-β; assay: AlphaScreen SureFire p-SMAD3 (Ser423/425) assay, TGF-β-stimulated cells; assay type: cell-based; settings: Mus musculus
Outline: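 The p-SMAD-3 (Ser423/425) SureFire assay measured phosphorylation of endogenous SMAD-3 in cell lysates. Cells were plated overnight in collagen-coated plates, exposed to three-fold serially diluted compounds for about 10 minutes, then stimulated with TGFβ. Lysates (5 μL) received acceptor bead mix for 2 hours, then donor beads for 1½ hours before AlphaScreen reading.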

[2] = system: GDF8; assay: AlphaScreen SureFire p-SMAD3 (Ser423/425) assay, GDF8-stimulated cells; assay type: cell-based; settings: Mus musculus
Outline: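 Lysate (5 μL) went into 384-well shallow plates with 5 μL of Reaction Buffer, Activation Buffer and AlphaScreen Acceptor bead mix. Plates were sealed, kept dark and shaken for 2 hours at room temperature. Donor beads in dilution buffer (2 μL) were added for another 1½ hours, and p-SMAD3 signal was read on a Synergy-4 or Enspire reader.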

[3] = p-SMAD3 (Ser423/425) AlphaScreen in cell lysate, MPC-11, TGF-β stimulation, read-out: TGF-β: inhibition of TGF-β signaling, TGF-β pSMAD (MPC-11)
[4] = MPC-11, p-SMAD3 (Ser423/425) AlphaScreen in cell lysate, MPC11, GDF8 stimulation, read-out: GDF8: inhibition of GDF8 signaling, GDF pSMAD (MPC11)
[5] = MPC-11, read-out: TGF-β: inhibition of TGF-β signaling, TGF-β pSMAD (MPC-11), p-SMAD3 (Ser423/425) AlphaScreen in cell lysate, TGF-β stimulation
[6] = MPC-11, read-out: GDF8: inhibition of GDF8 signaling, GDF pSMAD (MPC11), p-SMAD3 (Ser423/425) AlphaScreen in cell lysate, GDF8 stimulation

Q: With `Cc1cc(-c2nc3n(c2-c2ccc4[nH]ncc4c2)CCC3)cc(C)c1F` [Compound 276, 5-(2-(4-fluoro-3,5-dimethylphenyl)-6,7-dihydro-5H-pyrrolo[1,2-a]imidazol-3-yl)-1H-indazole] as the compound, how does the IC50 [1, 3] read?
A: > 1000 nM

Q: And the IC50 [2, 4]?
A: 100 to 1000 nM

Q: Which results are given for `Fc1ccccc1-c1nc2n(c1-c1ccc3nccn3c1)CCC2` [Compound 8]?
A: IC50 [1, 3]: 100 to 1000 nM; IC50 [2, 4]: 100 to 1000 nM

Q: How did the IC50 [1, 3] turn out when `Fc1ccc(-c2nc3n(c2-c2ccc4[nH]ncc4c2)CCC3)cc1Cl` [Compound 264, 5-(2-(3-chloro-4-fluoropheny)-6,7-dihydro-5H-pyrrolo[1,2-a]imidazol-3-yl)-1H-indazole] was run?
A: 100 to 1000 nM

Q: And the IC50 [2, 4]?
A: < 50 nM

Q: `Cc1ccc(F)cc1-c1nc2n(c1-c1ccc3nccnc3c1)CCC2` [Compound 302, 6-(2-(5-fluoro-2-methylphenyl)-6,7-dihydro-5H-pyrrolo[1,2-a]imidazol-3-yl)quinoxaline] was tested. Which IC50 [1, 5] did it give?
A: > 1000 nM

Q: What about the IC50 [2, 6] of the same compound?
A: > 1000 nM

Q: Which IC50 [1, 3] does the source give for `Cc1ccccc1-c1nc2n(c1-c1ccc3nccnc3c1)CCC2` [Compound 306, 6-(2-(o-tolyl)-6,7-dihydro-5H-pyrrolo[1,2-a]imidazol-3-yl)quinoxaline] here?
A: > 1000 nM

Q: And the IC50 [2, 4]?
A: > 1000 nM

Q: `COc1c(C)cc(-c2nc3n(c2-c2ccc4ncsc4c2)CCC3)cc1C` [Compound 257, 6-(2-(4-methoxy-3,5-dimethylphenyl)-6,7-dihydro-5H-pyrrolo[1,2-a]imidazol-3-yl)benzo[d]thiazole] was tested. Which IC50 [1, 3] did it give?
A: > 1000 nM

Q: And the IC50 [2, 4]?
A: > 1000 nM

Q: Which results are given for `Fc1ccc(-c2nc3n(c2-c2ccc4nccn4c2)CCC3)cc1Cl` [Compound 37]?
A: IC50 [1, 3]: 100 to 1000 nM; IC50 [2, 4]: 50 to 100 nM

Q: Which results are given for `Cc1cc(F)ccc1-c1nc2n(c1-c1ccc3ncnn3c1)CCC2` [Compound 54, 6-(2-(4-fluoro-2-methylphenyl)-6,7-dihydro-5H-pyrrolo[1,2-a]imidazol-3-yl)-[1,2,4]triazolo[1,5-a]pyridine]?
A: IC50 [1, 3]: > 1000 nM; IC50 [2, 4]: 100 to 1000 nM

Q: For `Fc1cc(F)c(-c2nc3n(c2-c2ccc4nccnc4c2)CCN3)cc1F` [Compound 106, 6-(6-(2,4,5-trifluorophenyl)-2,3-dihydro-1H-imidazo[1,2-a]imidazol-5-yl)quinoxaline], which IC50 [1, 3] is on record?
A: < 50 nM

Q: And the IC50 [2, 4]?
A: < 50 nM

Q: For `CNCC1CCC2(CC1)Cc1nc(-c3ccc(F)cc3)c(-c3ccc4ncnn4c3)n1C2` (stereo not drawn) [Compound 86, 1-(3′-([1,2,4]triazolo[1,5-a]pyridin-6-yl)-2′-(4-fluorophenyl)-5′H,7′H-spiro[cyclohexane-1,6′-pyrrolo[1,2-a]imidazol]-4-yl)-N-methylmethanamine], which IC50 [1, 3] is on record?
A: > 1000 nM

Q: What about the IC50 [2, 4] of the same compound?
A: > 1000 nM

Q: With `COc1c(C)cc(-c2nc3n(c2-c2ccc4ncnn4c2)CCC3)cc1C` [Compound 30, 6-(2-(4-methoxy-3,5-dimethylphenyl)-6,7-dihydro-5H-pyrrolo[1,2-a]imidazol-3-yl)-[1,2,4]triazolo[1,5-a]pyridine] as the compound, how does the IC50 [1, 3] read?
A: > 1000 nM

Q: What about the IC50 [2, 4] of the same compound?
A: > 1000 nM

Q: How did the IC50 [1, 3] turn out when `CNC(=O)C1CCC2(CC1)Cc1nc(-c3ccc(F)cc3)c(-c3ccc4ncnn4c3)n1C2` (stereo not drawn) [Compound 78, 3′-([1,2,4]triazolo[1,5-a]pyridin-6-yl)-2′-(4-fluorophenyl)-N-methyl-5′H,7′H-spiro[cyclohexane-1,6′-pyrrolo[1,2-a]imidazole]-4-carboxamide] was run?
A: > 1000 nM

Q: And the IC50 [2, 4]?
A: > 1000 nM

Q: What does the source list for `Cc1c(F)ccc(-c2nc3n(c2-c2ccc4[nH]ncc4c2)CCC3)c1Cl` [Compound 312, 5-(2-(2-chloro-4-fluoro-3-methylphenyl)-6,7-dihydro-5H-pyrrolo[1,2-a]imidazol-3-yl)-1H-indazole]?
A: IC50 [1, 5]: > 1000 nM; IC50 [2, 6]: > 1000 nM

Q: Which IC50 [1, 3] does the source give for `Cc1cccc(-c2nc3occn3c2-c2ccc3ncccc3c2)c1` [Compound 144, 5-(quinolin-6-yl)-6-(m-tolyl)imidazo[2,1-b]oxazole] here?
A: 50 to 100 nM

Q: What about the IC50 [2, 4] of the same compound?
A: < 50 nM

Q: Which IC50 [1, 3] does the source give for `CS(=O)(=O)OCC1CCC2(CC1)Cc1nc(-c3ccc(F)cc3)c(-c3ccc4ncnn4c3)n1C2` (stereo not drawn) [Compound 84, (3′-([1,2,4]triazolo[1,5-a]pyridin-6-yl)-2′-(4-fluorophenyl)-5′H,7′H-spiro[cyclohexane-1,6′-pyrrolo[1,2-a]imidazol]-4-yl)methyl methanesulfonate] here?
A: > 1000 nM

Q: What about the IC50 [2, 4] of the same compound?
A: > 1000 nM
